# Measured values from patent publication US20260262647A1, “Synergistic Compositions Containing Guanidine” (Thor GmbH, priority 2023, published 2026).
# Values joined by “and” are separate entries in the source; they are usually repeats but may differ in a detail not shown here. Equal entries are not always repeated.
# Key:
# [1] = tested on: Pseudomonas spec. DSM 115322; experiment: Minimum inhibitory concentrations and synergy index in Müller-Hinton broth; assay type: cell-based
# Procedure: Test organisms used were Gram-negative bacterial species from the group of pseudomonads, Pseudomonas putida DSM 115323 and Pseudomonas spec. DSM 115322. For this purpose, mixtures with different concentrations of the respective active substances were prepared and tested for their effect on the pseudomonads. The test was run in Müller-Hinton broth MHB with a cell density of 10^6 microbes per ml. When organic acids are used as a combination partner with the guanidine, MHB was adjusted to pH 5.5.
# The incubation was run in microplates at 30° C. for 48 hours. After 48 hours, the batches were evaluated for turbidity resulting from growth, and optical density was additionally determined photometrically. In this way, the minimum inhibitory concentrations (MICs) of the two actives were determined individually and in combination.
# The calculation was done according to the standard method of F. C. Kull et al., Applied Microbiology, vol. 9 (1961), p. 538.
# This involves calculating the synergy index (SI) by the following formula:
# [formula] • Qa=concentration of component A in the A+B mixture • QA=concentration of component A as the sole biocide • Qb=concentration of component B in the A+B mixture • QB=concentration of component B as the sole biocide
# If the synergy index is greater than 1, this means that there is antagonism. If the synergy index assumes the value 1, this means that the effect of the two biocides/compounds is additive. If the synergy index assumes a value of less than 1, this means that there is synergism between the two biocides/compounds.
# bacteria mixture A = experiment: Emulsion paint inoculated three times with bacteria mixture A, live bacteria count CFU/g; assay type: cell-based; conditions: for CFU/g after inoculation: emulsion paint, 7 d
# From the text: In example 34, the synergistic interaction between guanidine and a zinc compound (zinc oxide) with respect to microbial infestation was examined in an emulsion paint by adding particular amounts of guanidine in the form of guanidine hydrochloride and a zinc compound in the form of zinc oxide, and tested for stability to microbial infestation. The paint tested was an emulsion paint based on styrene-acrylate binder (PVK 77%, pH 8.8) for indoor use, produced in the laboratory, without addition of the usual preservatives.
# The samples were inoculated repeatedly, three times in total, with a bacterial cell suspension of the following composition (2% v/w).
# • Alcaligenes faecalis NCIMB 13145 • Escherichia coli DSM 13631 • Burkholderia cepacia DSM 9241 • Staphylococcus aureus DSM 799 • Pseudomonas aeruginosa DSM 50071 • Pseudomonas putida DSM 13624
# The cell suspension of the bacteria mixture A was produced by growing the individual bacteria at 30° C. for 24 h in liquid culture on a shaker. The growth medium used for the bacteria was Müller-Hinton liquid medium. After growing, the individual liquid cultures were centrifuged, and the cells were resuspended in physiological saline solution. In order to adjust the mixture to a total cell count of 10^9/ml, the individual bacteria suspensions, if necessary, were diluted accordingly before being combined with saline solution. The cell count of the inoculum was determined in each case by chamber counting.
# After each inoculation and after incubation at 30° C. for 7 days, microbial infestation was evaluated in the samples by determining the live bacteria count per g of paint (colony-forming units, CFU/g). The CFU/g was determined each time by taking an aliquot (1 g) from the previously homogenized sample and running a serial decadic dilution series in physiological saline solution (0.9% NaCl) by streaking on tryptic soy agar, followed by incubation of the agar plates at 30° C. for 48 h.
# [2] = mixture with guanidine, Qa, 48 hours at 30° C.
smiles,measurement,setting,value
"CCC(N)(CO)CO [AEPD, 2-aminoethylpropane-1,3-diol]",QB: Concentration of AEPD as the sole agent that shows an endpoint,"[1]; AEPD alone, 48 hours at 30° C.",5000 ppm
same,Synergy index Qa/QA + Qb/QB,"[1]; guanidine and AEPD, Qa",1.00
"Oc1ccccc1-c1ccccc1 [oPP, o-phenylphenol]",Synergy index Qa/QA + Qb/QB,"[1]; guanidine and oPP, Qa",1.00
same,QB: Concentration of oPP as the sole agent that shows an endpoint,"[1]; oPP alone, 48 hours at 30° C.",750 ppm
O=C(O)c1ccccc1O [salicylic acid],Synergy index Qa/QA + Qb/QB,"[1]; guanidine and salicylic acid, Qa, pH 5.5",1.00
same,QB: Concentration of salicylic acid as the sole agent that shows an endpoint,"[1]; salicylic acid (added as sodium salicyate) alone, MHB adjusted to pH 5.5, 48 hours at 30° C.",1713 ppm
"CC(O)(P(=O)(O)O)P(=O)(O)O [HEDP, (1-hydroxyethylidene)bisphosphonic acid]",QB: Concentration of HEDP as the sole agent that shows an endpoint,"[1]; HEDP alone, 48 hours at 30° C.",300 ppm
same,Synergy index Qa/QA + Qb/QB,"[1]; guanidine and HEDP, Qa",1.00
same,Qb (HEDP): Concentration of HEDP in the mixture that shows an endpoint,[1]; [2],1000 ppm
"NCCO [MEA, monoethanolamine]",QB: Concentration of MEA as the sole agent that shows an endpoint,"[1]; MEA alone, 48 hours at 30° C.",2000 ppm
same,Synergy index Qa/QA + Qb/QB,"[1]; guanidine and MEA, Qa",1.00
O=[N+]([O-])C(Br)(CO)CO [bronopol],QB: Concentration of bronopol as the sole agent that shows an endpoint,"[1]; bronopol alone, 48 hours at 30° C.",25 ppm
same,Synergy index Qa/QA + Qb/QB,"[1]; guanidine and bronopol, Qa",1.00
CCCCCCOCC(O)CO (stereo not shown) [hexylglycerol],Synergy index Qa/QA + Qb/QB,"[1]; guanidine and hexylglycerol, Qa",1.00
same,QB: Concentration of hexylglycerol as the sole agent that shows an endpoint,"[1]; hexylglycerol alone, 48 hours at 30° C.",2000 ppm
OCCCc1ccccc1,Synergy index Qa/QA + Qb/QB,"[1]; guanidine and phenylpropanol, Qa",1.00
same,QB: Concentration of phenylpropanol as the sole agent that shows an endpoint,"[1]; phenylpropanol alone, 48 hours at 30° C.",2000 ppm
"Cn1sc2ccccc2c1=O [MBIT, N-methyl-1,2-benzisothiazolin-3-one]",QB: Concentration of MBIT as the sole agent that shows an endpoint,"[1]; MBIT alone, 48 hours at 30° C.",300 ppm
same,Synergy index Qa/QA + Qb/QB,"[1]; guanidine and MBIT, Qa",1.00
CC(O)C(=O)O (stereo not shown) [lactic acid],Synergy index Qa/QA + Qb/QB,"[1]; guanidine and lactic acid, Qa, pH 5.5",1.00
same,QB: Concentration of lactic acid as the sole agent that shows an endpoint,"[1]; lactic acid (added as sodium L-lactate) alone, MHB adjusted to pH 5.5, 48 hours at 30° C.",15896 ppm
O=C(O)CC(O)(CC(=O)O)C(=O)O [citric acid],QB: Concentration of citric acid as the sole agent that shows an endpoint,"[1]; citric acid (added as trisodium citrate) alone, MHB adjusted to pH 5.5, 48 hours at 30° C.",51293 ppm
"Cn1sccc1=O [MIT, 2-methyl-4-isothiazolin-3-one]",QB: Concentration of MIT as the sole agent that shows an endpoint,"[1]; MIT alone, 48 hours at 30° C.",75 ppm
same,Synergy index Qa/QA + Qb/QB,"[1]; guanidine and MIT, Qa",1.00
O=C(O)c1ccccc1 [benzoic acid],QB: Concentration of benzoic acid as the sole agent that shows an endpoint,"[1]; benzoic acid (added as sodium benzoate) alone, MHB adjusted to pH 5.5, 48 hours at 30° C.",1680 ppm
same,Synergy index Qa/QA + Qb/QB,"[1]; guanidine and benzoic acid, Qa, pH 5.5",1.00
"CCCCn1sc2ccccc2c1=O [BBIT, N-butyl-1,2-benzisothiazolin-3-one]",QB: Concentration of BBIT as the sole agent that shows an endpoint,"[1]; BBIT alone, 48 hours at 30° C.",400 ppm
same,Synergy index Qa/QA + Qb/QB,"[1]; guanidine and BBIT, Qa",1.00
"CCCCCCCCn1sccc1=O [OIT, octylisothiazolinone]",QB: Concentration of OIT as the sole agent that shows an endpoint,"[1]; OIT alone, 48 hours at 30° C.",250 ppm
same,Synergy index Qa/QA + Qb/QB,"[1]; guanidine and OIT, Qa",1.00
"CCCCCC(O)CO (stereo not shown) [heptane-1,2-diol]",Synergy index Qa/QA + Qb/QB,"[1]; guanidine and heptane-1,2-diol, Qa",1.00
same,"QB: Concentration of heptane-1,2-diol as the sole agent that shows an endpoint","[1]; heptane-1,2-diol alone, 48 hours at 30° C.",3750 ppm
"CCCCC(O)CO (stereo not shown) [hexane-1,2-diol]",Synergy index Qa/QA + Qb/QB,"[1]; guanidine and hexane-1,2-diol, Qa",1.00
same,"QB: Concentration of hexane-1,2-diol as the sole agent that shows an endpoint","[1]; hexane-1,2-diol alone, 48 hours at 30° C.",7500 ppm
"N#CC(Br)(Br)C(N)=O [DBNPA, dibromonitrilopropionamide]",QB: Concentration of DBNPA as the sole agent that shows an endpoint,"[1]; DBNPA alone, 48 hours at 30° C.",25 ppm
same,Synergy index Qa/QA + Qb/QB,"[1]; guanidine and DBNPA, Qa",1.00
OCc1ccccc1 [benzyl alcohol],QB: Concentration of benzyl alcohol as the sole agent that shows an endpoint,"[1]; benzyl alcohol alone, 48 hours at 30° C.",2000 ppm
same,Synergy index Qa/QA + Qb/QB,"[1]; guanidine and benzyl alcohol, Qa",1.00
CC(C)O [isopropanol],Synergy index Qa/QA + Qb/QB,"[1]; guanidine and isopropanol, Qa",1.00
same,QB: Concentration of isopropanol as the sole agent that shows an endpoint,"[1]; isopropanol alone, 48 hours at 30° C.",60000 ppm
OCCc1ccccc1 [phenethyl alcohol],Synergy index Qa/QA + Qb/QB,"[1]; guanidine and phenethyl alcohol, Qa",1.00
same,QB: Concentration of phenethyl alcohol as the sole agent that shows an endpoint,"[1]; phenethyl alcohol alone, 48 hours at 30° C.",2500 ppm
"[O]=[Zn] [Zinc oxide, zinc oxide]",CFU/g after inoculation,"bacteria mixture A; Zinc oxide 125 ppm (100 ppm Zn), 1. inoculation",9.4 × 10^5 CFU/g
same,CFU/g after inoculation,"bacteria mixture A; Zinc oxide 125 ppm (100 ppm Zn), 2. inoculation",>10^6 CFU/g
same,CFU/g after inoculation,"bacteria mixture A; Zinc oxide 125 ppm (100 ppm Zn), 3. inoculation",>10^6 CFU/g
same,CFU/g after inoculation,"bacteria mixture A; Zinc oxide 250 ppm (201 ppm Zn), 1. inoculation",2.2 × 10^4 CFU/g
same,CFU/g after inoculation,"bacteria mixture A; Zinc oxide 250 ppm (201 ppm Zn), 2. inoculation",>10^6 CFU/g
same,CFU/g after inoculation,"bacteria mixture A; Zinc oxide 250 ppm (201 ppm Zn), 3. inoculation",>10^6 CFU/g
same,CFU/g after inoculation,"bacteria mixture A; Zinc oxide 500 ppm (402 ppm Zn), 1. inoculation",6.6 × 10^4 CFU/g
same,CFU/g after inoculation,"bacteria mixture A; Zinc oxide 500 ppm (402 ppm Zn), 2. inoculation",>10^6 CFU/g
same,CFU/g after inoculation,"bacteria mixture A; Zinc oxide 500 ppm (402 ppm Zn), 3. inoculation",>10^6 CFU/g
same,CFU/g after inoculation,"bacteria mixture A; Zinc oxide 1000 ppm (803 ppm Zn), 1. inoculation",9.9 × 10^3 CFU/g
same,CFU/g after inoculation,"bacteria mixture A; Zinc oxide 1000 ppm (803 ppm Zn), 2. inoculation",>10^6 CFU/g
same,CFU/g after inoculation,"bacteria mixture A; Zinc oxide 1000 ppm (803 ppm Zn), 3. inoculation",>10^6 CFU/g
same,CFU/g after inoculation,"bacteria mixture A; Zinc oxide 2500 ppm (2009 ppm Zn), 1. inoculation",<100 CFU/g
same,CFU/g after inoculation,"bacteria mixture A; Zinc oxide 2500 ppm (2009 ppm Zn), 2. inoculation",<100 CFU/g
same,CFU/g after inoculation,"bacteria mixture A; Zinc oxide 2500 ppm (2009 ppm Zn), 3. inoculation",<100 CFU/g
same,Synergy index Qa/QA + Qb/QB,"bacteria mixture A; guanidine and zinc in emulsion paint, Qa, Qb",1.00
same,QB: Concentration of zinc as the sole agent that shows an endpoint,"bacteria mixture A; zinc (added as zinc oxide) alone in emulsion paint, endpoint after 3 inoculations up to a maximum of 1000 CFU/g",2009 ppm
"N#CCCC(Br)(C#N)CBr (stereo not shown) [DBDCB, dibromodicyanobutane]",QB: Concentration of DBDCB as the sole agent that shows an endpoint,"[1]; DBDCB alone, 48 hours at 30° C.",250 ppm
same,Synergy index Qa/QA + Qb/QB,"[1]; guanidine and DBDCB, Qa",1.00
"CCCC(O)CO (stereo not shown) [pentane-1,2-diol]",Synergy index Qa/QA + Qb/QB,"[1]; guanidine and pentane-1,2-diol, Qa",1.00
same,"QB: Concentration of pentane-1,2-diol as the sole agent that shows an endpoint","[1]; pentane-1,2-diol alone, 48 hours at 30° C.",10000 ppm
"CC(C)(N)CO [AMP, 2-amino-2-methyl-1-propanol]",QB: Concentration of AMP as the sole agent that shows an endpoint,"[1]; AMP alone, 48 hours at 30° C.",2500 ppm
same,Synergy index Qa/QA + Qb/QB,"[1]; guanidine and AMP, Qa",1.00
[O-][n+]1ccccc1S [pyrithione],Synergy index Qa/QA + Qb/QB,"[1]; guanidine and pyrithione, Qa",1.00
same,QB: Concentration of pyrithione as the sole agent that shows an endpoint,"[1]; pyrithione (added as sodium pyrithione) alone, 48 hours at 30° C.",127 ppm
"CCCCC(CC)COCC(O)CO (stereo not shown) [EHG, ethylhexylglycerol]",QB: Concentration of EHG as the sole agent that shows an endpoint,"[1]; EHG alone, 48 hours at 30° C.",2000 ppm
same,Synergy index Qa/QA + Qb/QB,"[1]; guanidine and EHG, Qa",1.00
"CCCCCCC(O)CO (stereo not shown) [octane-1,2-diol]",Synergy index Qa/QA + Qb/QB,"[1]; guanidine and octane-1,2-diol, Qa",1.00
same,"QB: Concentration of octane-1,2-diol as the sole agent that shows an endpoint","[1]; octane-1,2-diol alone, 48 hours at 30° C.",2000 ppm
"O=C(O)CN(CCN(CC(=O)O)CC(=O)O)CC(=O)O [EDTA, ethylenediaminetetraacetic acid]",QB: Concentration of EDTA as the sole agent that shows an endpoint,"[1]; EDTA alone, 48 hours at 30° C.",300 ppm
same,Synergy index Qa/QA + Qb/QB,"[1]; guanidine and EDTA, Qa",1.00
same,Qb (EDTA): Concentration of EDTA in the mixture that shows an endpoint,[1]; [2],250 ppm and 200 ppm and 175 ppm and 125 ppm
C/C=C/C=C/C(=O)O [sorbic acid],Synergy index Qa/QA + Qb/QB,"[1]; guanidine and sorbic acid, Qa, pH 5.5",1.00
same,QB: Concentration of sorbic acid as the sole agent that shows an endpoint,"[1]; sorbic acid (added as potassium sorbate) alone, MHB adjusted to pH 5.5, 48 hours at 30° C.",1849 ppm
